The values that follow come from PubChem BioAssay AID488788 (Broad Institute, 2010).

Inconclusive results are not listed. Active and inactive are the calls of the source. The rule behind the calls is not given here.

The experiment concerns the target CAAX prenyl protease 2 (Saccharomyces cerevisiae (strain ATCC 204508 / S288c)) (UniProt Q03530). The experiment can be described thus: Rce1p protease inhibitors, dose response, biochemical, plate reader, cherry-pick (AID 488788). The following applies: Rce1p enzyme activity, at 10 µM (top of the series).

Chain of CAAX prenyl protease 2 (Saccharomyces cerevisiae (strain ATCC 204508 / S288c)) (Q03530 whole entry, looked up): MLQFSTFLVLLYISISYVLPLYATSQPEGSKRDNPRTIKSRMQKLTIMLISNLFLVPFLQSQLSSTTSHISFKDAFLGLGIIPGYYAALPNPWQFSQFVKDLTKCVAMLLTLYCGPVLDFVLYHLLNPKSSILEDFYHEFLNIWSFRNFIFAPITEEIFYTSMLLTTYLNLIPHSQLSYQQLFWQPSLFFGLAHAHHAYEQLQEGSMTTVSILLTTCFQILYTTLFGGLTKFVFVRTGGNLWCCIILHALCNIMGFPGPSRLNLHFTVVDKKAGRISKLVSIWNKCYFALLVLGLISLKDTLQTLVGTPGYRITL

With `Cc1ccc(C2(COC(=O)C(C)C)CO2)c(OC(=O)C(C)C)c1` (stereo not drawn), the “activity change, negative = inhibition” value was “inactive”.
For `Cc1nn(CCC(=O)O)c2nc(-c3cccnc3)cc(C(F)(F)F)c12` the value was “inactive”.
The same measure for `COCCNc1nc(N)c([N+](=O)[O-])c(N2CCCCCC2)n1`: “inactive”; for `COc1cc(-c2nc3ccccn3c2/N=C/c2ccccc2)ccc1O`: “inactive”; for `CCO[C@@H]1OC(C(=O)N2CCN(Cc3ccccc3)CC2)=C[C@H](c2ccccc2)[C@H]1CCCO`: “inactive”.
Turning to `C/C(CC1(O)C(=O)Nc2ccccc21)=N\O` (stereo not drawn), the “activity change, negative = inhibition” value was “inactive”.
As for `CCn1c(C)nc2c(=O)oc3ccccc3c21`, the “activity change, negative = inhibition” value was “inactive”.
For `O=C(Nc1ccc(F)cc1)Oc1ccccc1N1CCOCC1` the value was “inactive”; for `COCCCNC(=S)NCCNc1nc2cc(C)cc(C)c2cc1C#N`, “inactive”.
The same measure for `COc1cc(-c2nc3ccccn3c2/N=C/c2cccc(OC)c2O)ccc1O`: “inactive”; for `O=C1NC2(C=Cc3c(ccc4ccccc34)O2)Oc2ccccc21` (stereo not drawn): “inactive”.
The same measure for `CC(C)N1CCN(S(=O)(=O)c2ccc3ccccc3c2)CC1`: “inactive”.
With `O=C1NC(c2ccc(Br)cc2)Nc2ccccc21` (stereo not drawn), the “activity change, negative = inhibition” value is “inactive”.
For `CN1CCN(C(=S)NC(=O)c2ccccc2Cl)CC1` the value was “inactive”.
Take `O=C1CCCN1CC(O)CS(=O)(=O)c1ccccc1` (stereo not drawn): the “activity change, negative = inhibition” value is “inactive”.
The same measure for `COc1ccccc1NC(=O)/C(=C\c1cccnc1)NC(=O)c1ccc(C)cc1`: “inactive”; for `N#CC(/C(=N/S(=O)(=O)c1cccs1)c1ccccc1)c1nc2ccccc2[nH]1` (stereo not drawn): “inactive”; for `O=C(O)CCC(=O)c1ccc(-c2ccccc2)cc1`: “inactive”.
`COc1ccc(C)cc1NC(=O)CN1C(=O)COc2ccc(S(=O)(=O)N3CCOCC3)cc21`: the “activity change, negative = inhibition” value was “inactive”.
For `COc1ccc2oc(-c3ccccc3)c(C(=O)N3CCOCC3)c2c1` the value was “inactive”; for `Cn1c(=O)c(C(=O)NCCO)c(O)c2ccccc21`, “inactive”; for `O=C(O)c1ccc(Nc2nc3ccc(Cl)cc3[nH]2)cc1`, “inactive”.
The same measure for `CCOc1cc(CNC2CCCC2)ccc1OCc1ccccc1Cl`: “inactive”.
The same measure for `COC(=O)c1sccc1NC(=O)CSc1nnnn1-c1ccccc1C`: “inactive”.
As for `C/C(=N\NC(=O)c1ccc(Br)cc1)c1cccc(NC(=O)c2cccnc2)c1`, the “activity change, negative = inhibition” value was “inactive”.
The same measure for `NC(=O)[C@@H]1CC2(CC(c3cccc(NC(=O)CC(c4ccccc4)c4ccccc4)c3)=NO2)CN1C(=O)c1ccc(Cl)cc1` (stereo partly drawn): “inactive”.
For `Cc1ccc(NS(=O)(=O)c2ccc(NC(=O)N3CCCCC3)cc2)cc1` the value was “inactive”.
The same measure for `CC(Cc1cccs1)NC(=O)Nc1ccc([N+](=O)[O-])cc1` (stereo not drawn): “inactive”.
In the case of `C/C=C(/C)C(=O)O[C@H]1[C@@H](O)c2c(ccc3ccc(=O)oc23)OC1(C)C`, the “activity change, negative = inhibition” value is “inactive”.
For `CC(=O)c1c(C)[nH]c(C(=O)OCc2ccc(Br)cc2)c1C` the value was “inactive”.
The same measure for `CCOc1cc(-c2nc3c(C)cccn3c2NCC2CCCO2)ccc1O` (stereo not drawn): “inactive”; for `O=C(COc1ncnc2cc([N+](=O)[O-])ccc12)NC(=O)NC1CCCCC1`: “inactive”.
`Cc1nc2c(C)cccn2c(=O)c1NC(=O)COc1ccccc1`: the “activity change, negative = inhibition” value was “inactive”.
For `CC(C)CNC(=O)Nc1ccc(F)c(Cl)c1` the value was “inactive”; for `O=C(N/N=C/C1CC=CCC1)c1ccc(O)cc1O` (stereo not drawn), “inactive”.
The same measure for `COc1ccc(S(=O)(=O)N(CC(=O)N2CCCC2)Cc2ccccc2)cc1`: “inactive”; for `O=C(O)c1ccc(N/N=C/c2ccc(-c3ccccc3Cl)o2)cc1`: “inactive”.
For `COc1ccc(Cc2nc3ccc(C(=O)N4CCCC4)cc3o2)cc1` the value was “inactive”.
Consider `C=C(C)C1(O)OC(=O)C=C1OC` (stereo not drawn), for which the “activity change, negative = inhibition” value is “inactive”.
For `CC(C)NCC(O)COCCOc1ccc(Br)cc1` (stereo not drawn) the value was “inactive”; for `CCCCn1c(=O)[nH]c(=O)c2c1nc(-c1ccc(OC)c(Br)c1)n2CC(C)C`, “inactive”.
For `Cc1ccc(S(=O)(=O)CC(=O)N2CCN(c3ccccc3F)CC2)cc1` the value was “inactive”; for `OC1CCN(C(c2ccc3ncccc3c2)c2nnnn2C2CCCCC2)CC1` (stereo not drawn), “inactive”; for `O=C1CN(S(=O)(=O)c2ccc([N+](=O)[O-])cc2)CC(=O)N1`, “inactive”.
Consider `CC1=NN(c2ccccc2)C(=O)/C1=C\c1ccc(Br)s1`, for which the “activity change, negative = inhibition” value was “inactive”.
Regarding `CCCCOC(=O)Nc1nc(C)c(C(=O)OCC)s1`, the “activity change, negative = inhibition” value was “inactive”.
The same measure for `CN1C(=O)c2ccccc2N(C)C1c1ccccc1Cl` (stereo not drawn): “inactive”; for `COc1ccc2c(c1)cc(C(=O)N[C@@H](CCSC)C(=O)N1CCC(C(=O)O)CC1)n2C`: “inactive”.
For `Cn1c(CCNS(=O)(=O)c2ccccc2)nnc1SCc1cccnc1` the value was “inactive”; for `C/C(CC(=O)NCc1ccco1)=N\NC(=O)c1ccc([N+](=O)[O-])cc1Cl`, “inactive”; for `CC(C)CC(=O)NC(=S)Nc1ccc(S(=O)(=O)Nc2nccs2)cc1`, “inactive”.
The same measure for `CCCOc1ccccc1C(=O)NCCCC(=O)O`: “inactive”.
In the case of `Cc1cc(N2CCOCC2)n2cc(-c3ccccc3)nc2n1`, the “activity change, negative = inhibition” value is “inactive”.
With `Cc1ccc(-c2cc3cccc[n+]3cc2-c2ccc(C)cc2)cc1`, the “activity change, negative = inhibition” value is “inactive”.
Turning to `COc1ccccc1NC(=O)CN(c1ccc(C23CC4CC(CC(C4)C2)C3)cc1)S(C)(=O)=O`, the “activity change, negative = inhibition” value was “inactive”.
The same measure for `COc1ccc(C2C3=C(CC(C)(C)CC3=O)Nc3n[nH]c(C)c32)cc1` (stereo not drawn): “inactive”; for `COc1ccccc1N1CCN(C(=O)c2coc(=O)c(Br)c2)CC1`: “inactive”.
Regarding `COC(C[C@@H]1O[C@@H]1C(=O)[C@@H](C)OCc1ccccc1)OC`, the “activity change, negative = inhibition” value was “inactive”.
For `CCc1ccc(NC(=O)c2cnc(N3CCN(c4ccccn4)CC3)c3ccccc23)cc1` the value was “inactive”.
The same measure for `COc1cc2c(cc1OC)C(C)N(C(=O)CCNC(=O)c1ccccc1)CC2` (stereo not drawn): “inactive”; for `Cc1cc(C)n(-c2nc3ccccc3c(=O)n2OCC(=O)N(C)C)n1`: “inactive”.
`COc1ccccc1-c1cc(C(=O)O)c2c(=O)n(C)c(=O)n(Cc3ccccc3)c2n1`: the “activity change, negative = inhibition” value was “inactive”.
The same measure for `CCN(CC)CCNC(=O)CSc1c2c(nc3cc(Cl)ccc13)CCCC2`: “inactive”; for `Cc1ccnc(-n2c(-c3ccco3)nc3ccccc3c2=O)c1`: “inactive”.
In the case of `Cc1ccc(C(=O)c2c3ccccc3[n+]([O-])n2CCO)cc1`, the “activity change, negative = inhibition” value was “inactive”.
For `CC1=C(C(=O)N2CCOCC2)C(c2ccccc2F)C2=C(CC(C)(C)CC2=O)N1` (stereo not drawn) the value was “inactive”; for `O=C(CN1CCC(NC(=O)c2ccc(Br)cc2)CC1)NCc1cccs1`, “inactive”; for `CC(C)CNC(=O)COc1cccc(C(=O)NCc2ccccc2)c1`, “inactive”.
`CC(C)CC(=O)Nc1ccc2oc(-c3cccnc3)nc2c1`: the “activity change, negative = inhibition” value is “inactive”.
On to `Cc1cccc(N2C(=O)c3cccc4c(N5CCCCC5)c([N+](=O)[O-])cc(c34)C2=O)c1C`, for which the “activity change, negative = inhibition” value was “inactive”.
Consider `COc1cc2c(cc1OC)C(C)N(C(=O)c1cc3c(=O)oc4ccc(C)cc4c3s1)CC2` (stereo not drawn), for which the “activity change, negative = inhibition” value is “inactive”.
For `Cc1cccc(NC(=O)c2cc(S(=O)(=O)N3CCCCC3)c[nH]2)c1C` the value was “inactive”; for `Cc1ccc(C(=O)N/C(=C/c2ccco2)C(=O)Nc2cccc(C(=O)O)c2)cc1`, “inactive”; for `CCNC(=S)NNC(=O)CCn1cc(C)cn1`, “inactive”.
The same measure for `CCOC(=O)c1sc2nc(C3CC3)cc(-c3ccc(F)cc3)c2c1N`: “inactive”; for `CCN(C(=O)COC(=O)c1cc(-c2cccs2)nc2ccccc12)C1CCS(=O)(=O)C1` (stereo not drawn): “inactive”; for `CC(C)c1ccc(NC(=O)COc2nncc3ccccc23)cc1`: “inactive”.
For `O=C1C(Cc2c[nH]c3ccccc23)NC(=S)N1Cc1ccccc1` (stereo not drawn) the value was “inactive”; for `COc1ccc(OCC(=O)NS(=O)(=O)c2ccc(Cl)cc2)cc1`, “inactive”; for `O=C(O)c1ccc2cccc(Cl)c2c1O`, “inactive”.
In the case of `CCOc1ccc(N(CC(=O)NC2CC3CCC2C3)S(=O)(=O)c2ccccc2)cc1` (stereo not drawn), the “activity change, negative = inhibition” value is “inactive”.
For `COC(C/C=C/[C@H](O)[C@H](C)OCc1ccccc1)OC` the value was “inactive”; for `COCCCNC(=O)c1cc2cc3cc(OC)ccc3nc2o1`, “inactive”.
